These results are taken from patent US11759480B2, “Compositions and methods for CAR T cell therapy” (ENDOCYTE, INC., priority 2017, dated 2023).

One data set has as its system MDA-MB-231 tumors. Format: in vivo, NSG mice. The procedure:
MDA-MB-231 tumors were generated by subcutaneous implantation of cultured cells at 2×10^6 in NSG mice.
FITC-CAR-T cells were prepared as described previously. After culturing in-vitro for 12-20 days, they were frozen and stored at −80° C. in a freezing reagent containing 50% heat-inactivated AB+ human serum, 40% T cell culture media, and 10% DMSO. Frozen CAR-T cells were quickly thawed at 37° C., washed twice with PBS, and used for animal injection.
In general, EC17/CAR-T therapy initiated when mouse tumors reached ˜200-250 mm^3 and weekly EC17 doses at 500 nmol/kg started 2 days after the CAR-T administration. All EC17 doses were given towards the end of day (˜3-4 PM) to allow cytokine release syndrome (CRS) to develop overnight. Sodium fluorescein rescue at various doses (0.06-60 μmol/kg) was administrated after the first dose of EC17, when the animals experienced a severe CRS of grade 3-4 on a 0-5 grading scale (FIG. 31). Plasma samples at various time points (3-27 hours) post sodium fluorescein rescue were collected for multiplex cytokine analysis.
Approximately 48 hours after CAR-T cell infusion, mice were separated into 3 groups. The first group (#1) was not dosed with EC17 and served as the CAR-T cell control, the second (#2) and the third (#3) groups were intravenously injected with a single dose of EC17 (500 nmol/kg). […] Group #2 then received a single intravenous sodium fluorescein (60 μmol/kg) while group #3 was left un-rescued. […] Three satellite animals from each group were euthanized to collect blood and organs for cytokine analysis and organ toxicity evaluation. Whole blood was obtained via cardiac puncture and collected into EDTA containing tubes. Twenty-seven hours after sodium fluorescein rescue, mice rescued with 60 μmol/kg sodium fluorescein in group #2 were recovering and sCRS scale decreased to grade 2, while mice without rescue in group #3 had worse sCRS (grade 3-4). At this time, 6 satellite mice from each group were euthanized for blood collection and organ evaluation. The remaining mice were dosed with a single dose of 500 nmol/kg EC17 every week if desired, and the EC17 dosing dates were labeled in FIG. 36 as dashed vertical lines occurring after the notation “EC17”. Tumor volume and body weight changes were monitored 2-3 times per week.
To evaluate whether a lower level of sodium fluorescein can also rescue mice under sCRS, the same rescue study was performed except that sodium fluorescein was dosed at 0.06, 0.6, and 6 μmol/kg.

In data set [1] the test system is MDA-MB-231. The data set is described as follows: CAR-T and EC17 therapy-related toxicity versus tumor size (Example 46). Format: in vivo, NSG mice. The protocol: To explore whether CAR-T therapy related toxicity is dependent on tumor load, NSG mice were s.c. implanted with MDA-MB-231. Ten mice with different tumor sizes ranging between 150-900 mm^3 were selected for this study. For the CAR-T cells, 10.5 million GFP+FITC-CAR-T cells were i.v. injected followed by 500 nmol/kg EC17 administration 48 hours later (FIG. 71A). Body weights of mice were compared between before CAR-T injection and 18 hours post EC17 administration. […] With higher tumor burden, mice lost more body weight after CAR-T and EC17 treatment. […] Plasma samples were separated immediately and stored at −20° C. until the analysis of cytokine levels using a human cytokine detection kit (Biolegend). […] With higher tumor burden, more IL-6 was produced after CAR-T and EC17 treatment. IL-6 has been widely reported to be the predicting biomarker for severe cytokine release syndrome in human patients with liquid tumors when they are treated with conventional CAR-T therapy.

The subject of data set [2] is MDA-MB-231. Briefly: FITC-Folate dose escalation study in vivo (Example 20). The protocol: To test whether gradual escalation of FITC-Folate dose can minimize CART cell mediated toxicity without compromising anti-tumor efficacy of CAR T cells, an experiment was designed. A dose of FITC-Folate (0.05 nmole/kg) was introduced first into NSG mice bearing MDA-MB-231 (tumor volume about 50-100 mm^3) along with anti-FITC CAR T cell injections (using about 15×10^6 cells). An additional two doses of about 0.05 nmole/kg FITC-Folate was administered to the mice. […] After a gradual increase of FITC-Folate dose, mice were treated with a 500 nmole/kg dose of FITC-Folate. […] General toxicity of each treatment group was monitored by measuring body weight loss. Tumor volume was measured to monitor anti-FITC CAR T cells' anti-tumor efficacy.

Data set [3] deals with MDA-MB-231 solid tumor xenografts. Briefly: Effect of FITC-Folate dose on anti-FITC CAR T cell response (Example 10). Format: in vivo, NSG mice. From the text:
Five experimental groups: (1) anti-FITC CAR T cell with PBS; (2) anti-FITC CAR T cell with FITC-Folate (5 nmoles/kg); (3) anti-FITC CAR T cell with FITC-Folate (50 nmoles/kg); (4) anti-FITC CAR T cell with FITC-Folate (500 nmoles/kg); (5) anti-FITC CAR T cell with FITC-Folate (2500 nmoles/kg) were designed to identify the relationship between anti-FITC CAR T cell response and the dose of FITC-ligands. MDA-MB-231 cells were subcutaneously injected into the shoulders of NSG mice (Jackson Laboratory) to establish solid tumor xenografts. When tumor volume reached around 50-100 mm^3, anti-FITC CAR T cells (15×10^6 cells) and different doses of FITC-Folate were intravenously introduced into the mice.
To monitor anti-FITC CAR T cell activation with the different doses of FITC-Folate, IFN-gamma concentration was measured in mouse blood by a bead-based immunoassay (Legendplex kit from Biolegend). Tumor volume was also measured. General toxicity for each treatment group was monitored by measuring weight loss.

Read-outs that look alike come from different tables or passages of the source.

For `Nc1nc2ncc(CNc3ccc(C(=O)NC(CCC(=O)NCCNC(=S)Nc4ccc(-c5c6ccc(=O)cc-6oc6cc(O)ccc56)c(C(=O)O)c4)C(=O)O)cc3)nc2c(=O)[nH]1` (stereo not shown) [EC17, FITC-Folate], in the data set with MDA-MB-231 tumors (500 nmol/kg SIW, ~10.4 million FITC-CAR-T), the tumor growth result is “started to shrink and disappeared eventually”. In the data set with MDA-MB-231 [1] (18 hours after 500 nmol/kg, 10.5 million CAR-T), the “cytokine release syndrome grade” value was found to be 2 grade. In addition, in the data set with MDA-MB-231 [1] (tumors 150-900 mm^3), the body weight changes entry is “tumor size dependent” and the “production of IL-6” value is reported as “tumor size dependent”. For the same compound, the “effect on CAR T cells' anti-tumor efficacy” value in the data set with MDA-MB-231 [2] (gradual escalation) was “did not negatively affect”. The toxicity entry with MDA-MB-231 [2] (gradual escalation 0.05 to 500 nmole/kg, 15×10^6 CAR T cells) is “no serious toxicity”. In addition, in data set [3] (5, 50, 500, 2500 nmoles/kg, 15×10^6 CAR T cells), the “concentration of IFN-gamma versus FITC-Folate dose” value is “bell-shaped dose-response curve”. Moreover, the “dose with maximum toxicity (lowest survival rate) and highest anti-tumor efficacy” value in data set [3] (15×10^6 CAR T cells) turned out to be 500 nmol/kg. Also, the “anti-tumor efficacy of CAR T cells” value in data set [3] (FITC-Folate 2500 nmole/kg) is “started to decrease”.

Consider `O=C([O-])c1ccccc1-c1c2ccc(=O)cc-2oc2cc([O-])ccc12.[Na+].[Na+]` [sodium fluorescein], for which the recovery entry is on record as “slowest recovery” in the data set on MDA-MB-231 tumors (0.06 μmol/kg) and “recovered the fastest” with MDA-MB-231 tumors (6 μmol/kg). Also, the “time to near normal range of IFN-γ” value in the data set with MDA-MB-231 tumors (60 μmol/kg) was 27 h. Also, in the data set on MDA-MB-231 tumors (60 μmol/kg), the “time to normal range of IL-2, TNF-α, IL-3, GM-CSF, IL-6” value is 7 h. The “human cytokine levels in blood” value with MDA-MB-231 tumors (60 μmol/kg, 7 hours and 27 hours post rescue) is reported as “much lower than those in un-rescued mice”. The sCRS severity entry in the data set on MDA-MB-231 tumors (0.06, 0.6, 6 μmol/kg, ~8.3 million CAR-T) is “dose-dependent reduction of sCRS severity”. Also, the sCRS grade result was “low grade 3” with MDA-MB-231 tumors (7 hours after 60 μmol/kg rescue, 0-5 grading scale) and 2 grade in the data set on MDA-MB-231 tumors (27 hours after 60 μmol/kg rescue). Besides, the lung edema entry with MDA-MB-231 tumors (27 hours after rescue, 60 μmol/kg) is on record as “lung edema was improved”. Besides, the “median effective dose (human cytokine levels in mouse blood)” value with MDA-MB-231 tumors (IL-2, TNF-α, IFN-γ etc.) is listed as “about 0.6 μmol/kg”. Also, the “earliest cytokine response post rescue” value in the data set with MDA-MB-231 tumors (key cytokines) was determined as 3 h. Further, the “effect on anti-tumor activity of EC17/CAR-T therapy” value with MDA-MB-231 tumors (one dose 6 μmol/kg) is on record as “didn't affect the anti-tumor activity”. The “effect on CAR-T anti-tumor activity” value with MDA-MB-231 tumors (one dose 60 μmol/kg) is “did not interfere with CAR-T anti-tumor activity in vivo”.
